Test results taken from paper PMC3265452 (PLoS Neglected Tropical Diseases, 2012).
Structures can show the parent of a compound that is named as a salt. Residues, ends and D or L forms follow the SMILES beside them. *: point of attachment. Cbz = O=C(OCc1ccccc1)*

These compounds were tested against AaDOP2 (Aedes aegypti, UniProt H6D5H2) (assay: AaDOP2 antagonist screen of the LOPAC1280 library (HEK-CRELuc-Aadop2 cells, luminescence)). Conditions: not given.
Chain of AaDOP2 (H6D5H2 1-476): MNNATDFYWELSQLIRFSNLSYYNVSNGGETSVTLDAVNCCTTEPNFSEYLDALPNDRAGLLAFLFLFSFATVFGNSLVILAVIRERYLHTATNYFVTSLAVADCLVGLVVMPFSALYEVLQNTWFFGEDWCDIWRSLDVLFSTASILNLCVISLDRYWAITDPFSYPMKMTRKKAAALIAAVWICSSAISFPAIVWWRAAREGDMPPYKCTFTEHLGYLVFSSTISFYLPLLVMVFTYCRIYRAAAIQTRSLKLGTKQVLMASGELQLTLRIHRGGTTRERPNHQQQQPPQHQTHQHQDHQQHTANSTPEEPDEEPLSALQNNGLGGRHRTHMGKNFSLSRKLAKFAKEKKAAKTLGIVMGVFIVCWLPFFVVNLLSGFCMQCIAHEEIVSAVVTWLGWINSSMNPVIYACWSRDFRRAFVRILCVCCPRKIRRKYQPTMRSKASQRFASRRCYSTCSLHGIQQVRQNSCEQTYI
Assay type: cell-based
In the case of Nc1ncnc2c1ncn2[C@@H]1O[C@H](COP(=O)(O)CP(=O)(O)OP(=O)([O-])[O-])[C@H](O)C1O.[Li+].[Li+] (stereo partly drawn) [Compound 788, alpha,beta-Methylene adenosine 5'-triphosphate dilithium], the “Compound effect (percent receptor signaling in presence of test compound, relative lux units relative to the SCH23390 control)” value is reported as 97. COc1ccc(OC)c(C(O)C(C)N)c1 (centres unmarked) [Compound 789, Methoxamine hydrochloride] was tested, and the “Compound effect (percent receptor signaling in presence of test compound, relative lux units relative to the SCH23390 control)” value was 92. In the case of O=C1c2c(O)ccc(O)c2C(=O)c2c(NCCNCCO)ccc(NCCNCCO)c21 [Compound 790, Mitoxantrone], the “Compound effect (percent receptor signaling in presence of test compound, relative lux units relative to the SCH23390 control)” value is reported as 18. In the case of COc1ccc2[nH]cc(CCN)c2c1.Cl [Compound 791, O-Methylserotonin hydrochloride], the “Compound effect (percent receptor signaling in presence of test compound, relative lux units relative to the SCH23390 control)” value is reported as 118. C[Se]C[C@H](N)C(=O)O.Cl [Compound 792, Se-(methyl)selenocysteine hydrochloride] was tested, and the “Compound effect (percent receptor signaling in presence of test compound, relative lux units relative to the SCH23390 control)” value was 129. In the case of CC(C)[C@H](NC(=O)OCc1ccccc1)C(=O)N[C@H](C=O)Cc1ccccc1 [Compound 793, MDL 28170] (Cbz-Val-Phe-aldehyde), the “Compound effect (percent receptor signaling in presence of test compound, relative lux units relative to the SCH23390 control)” value is reported as 96. For [H]/N=C(/NC)NCCC[C@H](N)C(=O)O [Compound 795, NG-Monomethyl-L-arginine acetate], the “Compound effect (percent receptor signaling in presence of test compound, relative lux units relative to the SCH23390 control)” value was 94. In the case of CN1CC[C@]2(CCN3CCc4c(oc5ccccc45)[C@@H]3C2)N(C)C1=O [Compound 796, MK-912], the “Compound effect (percent receptor signaling in presence of test compound, relative lux units relative to the SCH23390 control)” value is reported as 73. With Cc1nc(N=Nc2ccc(C(=O)O)cc2)c(COP(=O)(O)O)c(C=O)c1O [Compound 798, MRS 2159] the “Compound effect (percent receptor signaling in presence of test compound, relative lux units relative to the SCH23390 control)” value was 91. With NC(=O)COc1c(F)cc(SCCNS(=O)(=O)c2ccccc2)cc1F [Compound 800, 2,6-Difluoro-4-[2-(phenylsulfonylamino)ethylthio]phenoxyacetamide] the “Compound effect (percent receptor signaling in presence of test compound, relative lux units relative to the SCH23390 control)” value was 89. CC#C[C@]1(O)CC[C@H]2[C@@H]3CCC4=CC(=O)CCC4=C3[C@@H](c3ccc(N(C)C)cc3)C[C@@]21C [Compound 801, Mifepristone] was tested, and the “Compound effect (percent receptor signaling in presence of test compound, relative lux units relative to the SCH23390 control)” value was 94. C[C@](N)(Cc1ccc(O)cc1)C(=O)O [Compound 802, L-alpha-Methyl-p-tyrosine] was tested, and the “Compound effect (percent receptor signaling in presence of test compound, relative lux units relative to the SCH23390 control)” value was 100. With CCOC(=O)C1=C(C)NC(=S)NC1c1cccc(O)c1 (centres unmarked) [Compound 803, Monastrol] the “Compound effect (percent receptor signaling in presence of test compound, relative lux units relative to the SCH23390 control)” value was 103. With Cn1ccnc1 [Compound 804, 1-Methylimidazole] the “Compound effect (percent receptor signaling in presence of test compound, relative lux units relative to the SCH23390 control)” value was 100. In the case of CNC1(C)C2CCC(C2)C1(C)C (centres unmarked) [Compound 805, Mecamylamine hydrochloride], the “Compound effect (percent receptor signaling in presence of test compound, relative lux units relative to the SCH23390 control)” value is reported as 114. In the case of CC12CC3CC(C)(C1)CC(N)(C3)C2 [Compound 807, Memantine hydrochloride], the “Compound effect (percent receptor signaling in presence of test compound, relative lux units relative to the SCH23390 control)” value is reported as 91. CN(N=O)c1ccc(O)c(O)c1 [Compound 808, Me-3,4-dephostatin] was tested, and the “Compound effect (percent receptor signaling in presence of test compound, relative lux units relative to the SCH23390 control)” value was 101. For CN(C)c1ccc(O)c2c1C[C@H]1C[C@H]3[C@H](N(C)C)C(O)=C(C(N)=O)C(=O)[C@@]3(O)C(O)=C1C2=O [Compound 809, Minocycline hydrochloride], the “Compound effect (percent receptor signaling in presence of test compound, relative lux units relative to the SCH23390 control)” value was 94. CCCN(CCC)C(=O)C(CCC(=O)O)NC(=O)c1ccccc1 (centres unmarked) [Compound 812, Proglumide] was tested, and the “Compound effect (percent receptor signaling in presence of test compound, relative lux units relative to the SCH23390 control)” value was 97. COc1ccccc1CNCCCCCCNCCCCCCCCNCCCCCCNCc1ccccc1OC [Compound 815, Methoctramine tetrahydrochloride] was tested, and the “Compound effect (percent receptor signaling in presence of test compound, relative lux units relative to the SCH23390 control)” value was 66. C[C@@]12N[C@@H](Cc3ccccc31)c1ccccc12.O=C(O)/C=C\C(=O)O [Compound 817, (-)-MK-801 hydrogen maleate] was tested, and the “Compound effect (percent receptor signaling in presence of test compound, relative lux units relative to the SCH23390 control)” value was 98. With Cc1[nH]c2ccc(O)cc2c1CCN.O=C(O)/C=C\C(=O)O [Compound 818, 2-Methyl-5-hydroxytryptamine maleate] the “Compound effect (percent receptor signaling in presence of test compound, relative lux units relative to the SCH23390 control)” value was 102. CC(N)Cc1c[nH]c2ccc(O)cc12.O=C(O)/C=C\C(=O)O (stereo not drawn) [Compound 819, alpha-Methyl-5-hydroxytryptamine maleate] was tested, and the “Compound effect (percent receptor signaling in presence of test compound, relative lux units relative to the SCH23390 control)” value was 92. With Cc1ccccc1N1C(=O)c2cc(S(N)(=O)=O)c(Cl)cc2NC1C (centres unmarked) [Compound 820, Metolazone] the “Compound effect (percent receptor signaling in presence of test compound, relative lux units relative to the SCH23390 control)” value was 90. S=C=Nc1cccc(C2(N3CCCCC3)CCCCC2)c1 [Compound 821, Metaphit methanesulfonate] was tested, and the “Compound effect (percent receptor signaling in presence of test compound, relative lux units relative to the SCH23390 control)” value was 93. In the case of CC[C@@H](CO)NC(=O)[C@@H]1C=C2c3cccc4c3c(cn4C)C[C@H]2N(C)C1 [Compound 823, Methysergide maleate], the “Compound effect (percent receptor signaling in presence of test compound, relative lux units relative to the SCH23390 control)” value is reported as 82. With CNC(=O)OCC[N+](C)(C)C [Compound 824, Methylcarbamylcholine chloride] the “Compound effect (percent receptor signaling in presence of test compound, relative lux units relative to the SCH23390 control)” value was 103. For CSc1ccc2c(c1)C(N1CCN(C)CC1)Cc1ccccc1S2 (centres unmarked) [Compound 825, Methiothepin mesylate], the “Compound effect (percent receptor signaling in presence of test compound, relative lux units relative to the SCH23390 control)” value was 1. For CN1C[C@@H](NS(=O)(=O)N(C)C)C[C@@H]2c3cccc4c3c(cn4C)C[C@H]21 [Compound 827, Mesulergine hydrochloride], the “Compound effect (percent receptor signaling in presence of test compound, relative lux units relative to the SCH23390 control)” value was 88. For Cl.N=c1c[n+](N2CCOCC2)[n-]o1 [Compound 830, 3-Morpholinosydnonimine hydrochloride], the “Compound effect (percent receptor signaling in presence of test compound, relative lux units relative to the SCH23390 control)” value was 90. With COc1ccc2c(c1)[C@@]13CCCC[C@H]1[C@@H](C2)NCC3.Cl [Compound 831, 3-Methoxy-morphanin hydrochloride] the “Compound effect (percent receptor signaling in presence of test compound, relative lux units relative to the SCH23390 control)” value was 94.

Same assay, conditions: 10 µM compound, 300 nM dopamine, 2 hr; hit = compound effect <20
With Cl.NCCS [Compound 787, Cysteamine hydrochloride] the “Compound effect (percent receptor signaling in presence of test compound, relative lux units relative to the SCH23390 control)” value was 94%. COc1ccc(NC(=O)c2ccc(-c3ccc(-c4noc(C)n4)cc3C)cc2)cc1N1CCN(C)CC1.Cl [Compound 799, GR 127935 hydrochloride] was tested, and the “Compound effect (percent receptor signaling in presence of test compound, relative lux units relative to the SCH23390 control)” value was 90%. CNCCNS(=O)(=O)c1cccc2cnccc12.Cl.Cl [Compound 811, H-8 dihydrochloride] was tested, and the “Compound effect (percent receptor signaling in presence of test compound, relative lux units relative to the SCH23390 control)” value was 43%. With C[C@](N)(Cc1ccc(O)c(O)c1)C(=O)O [Compound 822, L-alpha-Methyl DOPA] the “Compound effect (percent receptor signaling in presence of test compound, relative lux units relative to the SCH23390 control)” value was 98%. In the case of CC(C)N(CCC(=O)c1ccc2ccccc2c1)Cc1ccccc1.Cl [Compound 829, ZM 39923 hydrochloride], the “Compound effect (percent receptor signaling in presence of test compound, relative lux units relative to the SCH23390 control)” value is reported as 83%.

Same assay, conditions: read-out: % of the SCH23390 effect (percent inhibition of receptor response relative to the SCH23390 control)
With O=C1c2c(O)ccc(O)c2C(=O)c2c(NCCNCCO)ccc(NCCNCCO)c21 [Compound 790, Mitoxantrone] the inhibition at 10 µM was 83%. CSc1ccc2c(c1)C(N1CCN(C)CC1)Cc1ccccc1S2 (centres unmarked) [Compound 825, Methiothepin mesylate] showed an inhibition at 10 µM of 99%.
